Assay results as given in patent publication US7074789B2, “Kinase inhibitors” (Amgen Inc., priority 1999, dated 2006).
Like-named read-outs stand apart in the source and are kept apart here.

Experiments:
Assay type in all cases: biochemical
[1] = target: T1, Zap-70 (Homo sapiens, UniProt P43403); test: Kinase inhibition assay (33P transfer), Zap-70; conditions: read-out: Zap-1
T1 construct: Kinases are expressed as either kinase domains or full length constructs; made in house
T1 sequence (P43403 1-619): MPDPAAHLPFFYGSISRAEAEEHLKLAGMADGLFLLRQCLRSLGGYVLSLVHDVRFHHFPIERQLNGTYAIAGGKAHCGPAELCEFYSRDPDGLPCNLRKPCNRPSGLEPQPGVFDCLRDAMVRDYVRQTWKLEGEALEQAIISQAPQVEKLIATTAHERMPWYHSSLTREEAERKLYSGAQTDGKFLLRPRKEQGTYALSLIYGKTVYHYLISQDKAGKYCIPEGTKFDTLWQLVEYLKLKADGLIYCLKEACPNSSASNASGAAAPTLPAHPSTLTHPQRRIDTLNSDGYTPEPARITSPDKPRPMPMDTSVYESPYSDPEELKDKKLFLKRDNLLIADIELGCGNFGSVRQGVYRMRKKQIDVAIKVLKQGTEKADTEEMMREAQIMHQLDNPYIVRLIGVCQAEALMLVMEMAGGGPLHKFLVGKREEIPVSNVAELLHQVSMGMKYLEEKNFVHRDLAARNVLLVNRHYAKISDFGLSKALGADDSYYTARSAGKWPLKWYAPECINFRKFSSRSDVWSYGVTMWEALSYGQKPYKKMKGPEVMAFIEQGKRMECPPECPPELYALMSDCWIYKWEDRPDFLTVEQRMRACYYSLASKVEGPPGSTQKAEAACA
Procedure, shortened: (§1)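 Activity was read as 33P incorporation, counted by liquid scintillation after a 0.5% phosphoric acid wash, into poly(Glu,Tyr) 4:1 or poly(Arg,Ser) 3:1 substrates coated on plates. Enzymes were tagged (GST or polyHis) kinase domains or full-length proteins from bacterial or insect-cell expression, sometimes with regulatory polypeptides.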

[2] = target: T2, EGFR (Homo sapiens, UniProt P00533); test: Kinase inhibition assay (33P transfer), EGFR; conditions: Table 2, kinase inhibition class; read-out: EGFR-1
T2 construct: Kinases are expressed as either kinase domains or full length constructs; made in house
Procedure, shortened: (§2)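 Recombinant kinase domains or full-length GST- or His-tagged constructs, from E. coli or baculovirus/High Five cells, sometimes with regulatory polypeptides. Transfer of 33P from ATP to plate-bound poly(Glu,Tyr) 4:1 or poly(Arg,Ser) 3:1 counted by liquid scintillation after phosphoric acid wash; IC50 is the concentration halving incorporation.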

[3] = target: T3, IGFR-1 (Homo sapiens, UniProt P08069); test: Kinase inhibition assay (33P transfer), IGFR-1; conditions: Table 2, kinase inhibition class
T3 construct: Kinases are expressed as either kinase domains or full length constructs; made in house
T3 sequence (P08069 31-1367): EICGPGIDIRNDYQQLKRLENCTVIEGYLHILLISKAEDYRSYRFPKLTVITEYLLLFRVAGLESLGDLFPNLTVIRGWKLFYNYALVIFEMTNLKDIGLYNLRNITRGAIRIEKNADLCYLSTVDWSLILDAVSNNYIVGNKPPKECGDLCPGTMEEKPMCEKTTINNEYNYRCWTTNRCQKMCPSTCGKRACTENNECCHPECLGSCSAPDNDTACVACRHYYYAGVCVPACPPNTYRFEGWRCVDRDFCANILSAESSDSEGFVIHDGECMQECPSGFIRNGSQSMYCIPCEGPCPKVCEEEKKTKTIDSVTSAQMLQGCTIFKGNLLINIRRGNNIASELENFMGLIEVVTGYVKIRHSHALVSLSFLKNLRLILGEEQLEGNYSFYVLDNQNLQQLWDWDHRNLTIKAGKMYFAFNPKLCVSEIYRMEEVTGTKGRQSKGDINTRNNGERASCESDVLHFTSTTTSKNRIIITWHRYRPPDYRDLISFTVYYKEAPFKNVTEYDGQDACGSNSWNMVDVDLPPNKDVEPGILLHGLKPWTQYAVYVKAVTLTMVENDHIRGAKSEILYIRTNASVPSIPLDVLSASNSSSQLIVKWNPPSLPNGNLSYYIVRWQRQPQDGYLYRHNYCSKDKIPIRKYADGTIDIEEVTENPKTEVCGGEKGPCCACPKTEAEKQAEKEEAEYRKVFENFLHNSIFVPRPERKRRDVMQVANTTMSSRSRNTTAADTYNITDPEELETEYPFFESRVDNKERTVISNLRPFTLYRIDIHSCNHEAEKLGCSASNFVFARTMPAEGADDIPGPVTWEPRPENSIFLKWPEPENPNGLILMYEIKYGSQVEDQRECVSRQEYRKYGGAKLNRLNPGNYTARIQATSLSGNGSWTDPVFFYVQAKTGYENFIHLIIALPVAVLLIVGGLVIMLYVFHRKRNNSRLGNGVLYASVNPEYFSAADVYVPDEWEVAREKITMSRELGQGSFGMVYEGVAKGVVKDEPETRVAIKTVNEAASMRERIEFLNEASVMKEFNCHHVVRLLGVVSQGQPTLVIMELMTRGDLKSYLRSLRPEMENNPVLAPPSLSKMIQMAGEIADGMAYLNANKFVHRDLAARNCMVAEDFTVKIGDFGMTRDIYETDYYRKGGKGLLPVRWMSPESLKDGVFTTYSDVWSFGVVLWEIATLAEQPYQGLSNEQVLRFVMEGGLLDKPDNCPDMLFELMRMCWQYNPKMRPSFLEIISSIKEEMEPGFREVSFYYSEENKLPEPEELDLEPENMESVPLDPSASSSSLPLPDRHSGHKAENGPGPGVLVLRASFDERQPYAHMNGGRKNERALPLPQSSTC

[4] = target: T4, Lck (Homo sapiens, UniProt P06239); test: Kinase inhibition assay (33P transfer), Lck; conditions: read-out: Lck-1
T4 construct: Kinases are expressed as either kinase domains or full length constructs; made in house
T4 sequence (P06239 whole entry, species assumed, the tested form may be a part): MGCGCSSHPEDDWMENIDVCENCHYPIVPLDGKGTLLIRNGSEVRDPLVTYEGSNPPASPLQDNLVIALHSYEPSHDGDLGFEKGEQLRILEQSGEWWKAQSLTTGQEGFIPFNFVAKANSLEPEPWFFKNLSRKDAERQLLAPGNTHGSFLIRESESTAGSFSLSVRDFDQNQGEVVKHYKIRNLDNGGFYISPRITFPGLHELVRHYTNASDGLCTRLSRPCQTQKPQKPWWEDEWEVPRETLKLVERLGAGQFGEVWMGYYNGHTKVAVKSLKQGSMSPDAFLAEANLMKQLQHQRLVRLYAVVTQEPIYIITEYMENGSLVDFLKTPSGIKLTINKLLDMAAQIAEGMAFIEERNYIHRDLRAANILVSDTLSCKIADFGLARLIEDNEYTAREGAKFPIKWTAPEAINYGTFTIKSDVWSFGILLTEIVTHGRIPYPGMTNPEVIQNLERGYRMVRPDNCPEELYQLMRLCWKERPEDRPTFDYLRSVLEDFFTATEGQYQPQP
Procedure, shortened: as §1

[5] = target: T5, Itk (Homo sapiens, UniProt Q08881); test: Kinase inhibition assay (33P transfer), Itk; conditions: read-out: Itk-1
T5 construct: Kinases are expressed as either kinase domains or full length constructs; made in house
T5 sequence (Q08881 1-620): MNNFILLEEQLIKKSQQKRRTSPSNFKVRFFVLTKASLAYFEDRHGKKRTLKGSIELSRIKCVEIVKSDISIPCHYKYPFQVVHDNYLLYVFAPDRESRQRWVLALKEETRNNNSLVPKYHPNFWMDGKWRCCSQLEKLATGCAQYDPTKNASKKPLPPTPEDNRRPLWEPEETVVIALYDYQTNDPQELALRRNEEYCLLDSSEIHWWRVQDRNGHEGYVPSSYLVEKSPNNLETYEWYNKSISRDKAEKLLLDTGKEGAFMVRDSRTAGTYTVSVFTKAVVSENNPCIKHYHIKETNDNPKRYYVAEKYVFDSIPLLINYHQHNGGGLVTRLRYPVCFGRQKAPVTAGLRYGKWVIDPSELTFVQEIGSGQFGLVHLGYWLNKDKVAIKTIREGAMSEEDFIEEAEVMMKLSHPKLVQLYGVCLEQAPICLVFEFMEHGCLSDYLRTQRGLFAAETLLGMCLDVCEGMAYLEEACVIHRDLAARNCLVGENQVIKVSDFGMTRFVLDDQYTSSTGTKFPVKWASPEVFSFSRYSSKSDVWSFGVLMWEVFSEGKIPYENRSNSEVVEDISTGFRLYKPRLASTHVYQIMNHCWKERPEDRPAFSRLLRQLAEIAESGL
Procedure, shortened: as §2

[6] = target: T6, c-Met (Homo sapiens, UniProt P08581); test: Kinase inhibition assay (33P transfer), c-Met; conditions: Table 2, kinase inhibition class; read-out: Met-1
T6 construct: Kinases are expressed as either kinase domains or full length constructs; made in house
T6 sequence (P08581 25-1390): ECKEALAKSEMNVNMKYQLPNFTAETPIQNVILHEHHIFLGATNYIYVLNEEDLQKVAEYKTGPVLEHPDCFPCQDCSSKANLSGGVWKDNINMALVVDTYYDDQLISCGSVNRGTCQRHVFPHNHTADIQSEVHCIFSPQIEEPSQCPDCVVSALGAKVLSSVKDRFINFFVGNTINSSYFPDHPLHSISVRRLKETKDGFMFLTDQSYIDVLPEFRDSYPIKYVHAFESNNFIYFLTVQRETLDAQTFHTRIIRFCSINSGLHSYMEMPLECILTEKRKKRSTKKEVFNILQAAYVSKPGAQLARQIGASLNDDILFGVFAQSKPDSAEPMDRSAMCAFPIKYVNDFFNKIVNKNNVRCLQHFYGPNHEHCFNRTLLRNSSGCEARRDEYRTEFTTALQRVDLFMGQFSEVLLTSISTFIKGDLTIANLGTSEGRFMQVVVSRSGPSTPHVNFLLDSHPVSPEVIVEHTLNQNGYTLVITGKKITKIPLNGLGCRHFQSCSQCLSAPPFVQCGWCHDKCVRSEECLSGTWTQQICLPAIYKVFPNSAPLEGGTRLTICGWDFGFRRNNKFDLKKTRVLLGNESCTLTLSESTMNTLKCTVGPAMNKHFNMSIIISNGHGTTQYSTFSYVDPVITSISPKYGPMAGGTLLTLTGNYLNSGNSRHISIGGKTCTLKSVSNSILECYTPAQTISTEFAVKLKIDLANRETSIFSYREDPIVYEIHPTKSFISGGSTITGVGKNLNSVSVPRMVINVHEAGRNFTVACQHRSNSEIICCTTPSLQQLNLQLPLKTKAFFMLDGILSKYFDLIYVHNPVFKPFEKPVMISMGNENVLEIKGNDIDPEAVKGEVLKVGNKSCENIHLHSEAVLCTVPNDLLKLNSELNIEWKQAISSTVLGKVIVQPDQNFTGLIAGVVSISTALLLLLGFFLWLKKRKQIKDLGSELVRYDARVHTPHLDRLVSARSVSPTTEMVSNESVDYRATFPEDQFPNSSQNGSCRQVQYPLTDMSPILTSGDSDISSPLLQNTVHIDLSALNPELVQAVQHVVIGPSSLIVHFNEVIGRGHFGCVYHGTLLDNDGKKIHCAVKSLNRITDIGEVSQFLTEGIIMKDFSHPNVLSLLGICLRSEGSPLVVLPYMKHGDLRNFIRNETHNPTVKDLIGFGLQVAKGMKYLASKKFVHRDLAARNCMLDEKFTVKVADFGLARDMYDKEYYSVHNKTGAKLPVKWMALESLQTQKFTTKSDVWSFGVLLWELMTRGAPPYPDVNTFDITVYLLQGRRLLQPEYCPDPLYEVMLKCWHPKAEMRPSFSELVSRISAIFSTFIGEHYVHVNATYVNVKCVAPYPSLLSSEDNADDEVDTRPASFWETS
Procedure, shortened: as §2

[7] = target: T7, AKT (Homo sapiens, UniProt Q9Y243); test: Kinase inhibition assay (33P transfer), AKT; conditions: Table 2, kinase inhibition class; read-out: AKT3-1
T7 construct: Kinases are expressed as either kinase domains or full length constructs; made in house
T7 sequence (Q9Y243 whole entry, the tested form may be a part): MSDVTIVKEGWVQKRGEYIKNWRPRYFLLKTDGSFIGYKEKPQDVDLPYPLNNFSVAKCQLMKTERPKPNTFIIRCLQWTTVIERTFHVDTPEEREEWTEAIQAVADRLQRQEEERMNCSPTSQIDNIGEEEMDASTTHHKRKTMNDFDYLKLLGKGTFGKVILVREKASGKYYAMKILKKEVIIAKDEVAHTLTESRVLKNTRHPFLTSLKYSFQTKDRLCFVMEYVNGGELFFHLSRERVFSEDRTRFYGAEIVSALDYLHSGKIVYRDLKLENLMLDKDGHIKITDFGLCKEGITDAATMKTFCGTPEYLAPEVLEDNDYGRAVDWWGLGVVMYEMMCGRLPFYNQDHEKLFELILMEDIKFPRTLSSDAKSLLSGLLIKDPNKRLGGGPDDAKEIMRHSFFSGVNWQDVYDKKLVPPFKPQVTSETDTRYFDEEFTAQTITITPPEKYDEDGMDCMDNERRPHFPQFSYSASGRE
Procedure, shortened: as §1

[8] = target: T8, Kdr (Homo sapiens, UniProt P35968); test: Kinase inhibition assay (33P transfer), Kdr; conditions: read-out: KDR-1
T8 construct: Kinases are expressed as either kinase domains or full length constructs; made in house
T8 sequence (P35968 20-1356, species assumed): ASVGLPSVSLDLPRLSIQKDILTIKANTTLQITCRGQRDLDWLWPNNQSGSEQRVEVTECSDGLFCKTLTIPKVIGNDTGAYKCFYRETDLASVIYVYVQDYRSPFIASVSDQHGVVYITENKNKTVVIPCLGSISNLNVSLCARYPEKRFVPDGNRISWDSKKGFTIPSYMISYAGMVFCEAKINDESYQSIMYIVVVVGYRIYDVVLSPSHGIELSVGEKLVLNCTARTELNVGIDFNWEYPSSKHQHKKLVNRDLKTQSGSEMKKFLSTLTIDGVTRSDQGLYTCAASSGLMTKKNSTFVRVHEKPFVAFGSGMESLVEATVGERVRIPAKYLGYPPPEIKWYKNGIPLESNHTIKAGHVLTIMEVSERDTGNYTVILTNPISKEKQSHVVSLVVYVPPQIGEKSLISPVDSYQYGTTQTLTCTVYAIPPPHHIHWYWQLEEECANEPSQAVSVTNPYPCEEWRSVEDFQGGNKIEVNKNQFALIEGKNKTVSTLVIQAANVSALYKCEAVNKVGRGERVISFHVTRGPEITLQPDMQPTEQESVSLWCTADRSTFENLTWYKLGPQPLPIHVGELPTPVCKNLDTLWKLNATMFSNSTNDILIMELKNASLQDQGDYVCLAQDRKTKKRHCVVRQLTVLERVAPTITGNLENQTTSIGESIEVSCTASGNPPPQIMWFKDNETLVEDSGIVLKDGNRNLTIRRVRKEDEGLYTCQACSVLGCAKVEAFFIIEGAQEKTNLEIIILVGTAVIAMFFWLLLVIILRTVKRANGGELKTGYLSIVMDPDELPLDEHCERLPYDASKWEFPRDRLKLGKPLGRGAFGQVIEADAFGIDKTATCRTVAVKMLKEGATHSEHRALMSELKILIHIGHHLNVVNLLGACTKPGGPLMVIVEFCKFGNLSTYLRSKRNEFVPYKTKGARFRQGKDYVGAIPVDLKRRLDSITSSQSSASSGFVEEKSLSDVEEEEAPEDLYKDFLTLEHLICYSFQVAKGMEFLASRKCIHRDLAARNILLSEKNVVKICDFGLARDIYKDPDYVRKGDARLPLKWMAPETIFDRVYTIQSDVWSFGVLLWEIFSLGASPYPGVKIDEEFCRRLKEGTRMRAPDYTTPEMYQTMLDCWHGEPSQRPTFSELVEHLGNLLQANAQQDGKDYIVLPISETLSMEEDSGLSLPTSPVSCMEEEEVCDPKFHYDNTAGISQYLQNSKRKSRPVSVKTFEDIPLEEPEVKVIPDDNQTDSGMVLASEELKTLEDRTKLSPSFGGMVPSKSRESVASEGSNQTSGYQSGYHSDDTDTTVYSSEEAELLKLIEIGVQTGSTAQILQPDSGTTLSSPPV
Procedure, shortened: as §1

[9] = target: T9, PDGFRB (Homo sapiens, UniProt P09619); test: Kinase inhibition assay (33P transfer), PDGFRB; conditions: read-out: PDGFRB-1
T9 construct: Kinases are expressed as either kinase domains or full length constructs; made in house

[10] = target: T10, ErbB2 (Homo sapiens, UniProt P04626); test: Kinase inhibition assay (33P transfer), ErbB2; conditions: read-out: ErbB2-2
T10 construct: Kinases are expressed as either kinase domains or full length constructs; made in house
Procedure, shortened: as §2

[11] = target: T3, IGFR-1; test: Kinase inhibition assay, IGFR-1 (Table 2); conditions: Table 2, kinase inhibition class

IC50 ([1]; Table 3) [µM] | IC50 [2] [µM] | IC50 [3] [µM] | IC50 ([4]; Table 3) [µM] | IC50 ([5]; Table 3) [µM] | IC50 [6] [µM] | IC50 [7] [µM] | IC50 ([8]; Table 3) [µM] | IC50 [1] [µM] | IC50 [9] [µM] | IC50 [10] [µM] | IC50 [4] [µM] | IC50 [5] [µM] | IC50 [8] [µM] | IC50 [11] [µM] | SMILES
> 13.7 | > 13.7 | > 13.7 | > 13.7 | > 13.7 | > 13.7 | > 13.7 | > 13.7 | – | – | – | – | – | – | – | CC(C)(C)OC(=O)NCCCNc1ncnc(-c2ccccc2)n1 [Compound 17]
> 16.9 | > 16.9 | > 16.9 | > 16.9 | > 16.9 | > 16.9 | > 16.9 | > 16.9 | – | – | – | – | – | – | – | Fc1ccccc1Nc1ncnc(-c2ccccc2)n1 [Compound 20]
8.21 to 10.6 | > 10.6 | 0.938 to 5.63 | 0.938 to 5.63 | > 10.6 | 8.21 to 10.6 | > 10.6 | 0.938 to 5.63 | – | – | – | – | – | – | – | COc1cccc(NC(=O)Nc2ncnc(Nc3cc(OC)c(OC)c(OC)c3)n2)c1 [Compound 21]
> 13.3 | > 13.3 | > 13.3 | 1.18 to 7.07 | > 13.3 | > 13.3 | > 13.3 | 1.18 to 7.07 | – | – | – | – | – | – | – | COc1cc(Nc2ncnc(-c3ccncc3)n2)cc(OC)c1OC [Compound 42]
> 15.4 | > 15.4 | > 15.4 | > 15.4 | > 15.4 | > 15.4 | > 15.4 | 12 to 15.4 | – | – | – | – | – | – | – | NC(=O)c1cccc(Nc2ncnc(-c3ccccc3)n2)c1 [Compound 151]
> 14.4 | > 14.4 | > 14.4 | > 14.4 | > 14.4 | > 14.4 | > 14.4 | 11.2 to 14.4 | – | – | – | – | – | – | – | Clc1ncnc(Nc2ccc(OCc3ccccc3)cc2)n1 [Compound 153]
> 9.29 | > 9.29 | > 9.29 | > 9.29 | > 9.29 | > 9.29 | 7.22 to 9.29 | 4.95 to 7.22 | – | – | – | – | – | – | – | CC(C)(C)OC(=O)Nc1ccc(Nc2ncnc(Nc3ccc(OCc4ccccc4)cc3)n2)cc1 [Compound 162]
– | < 0.804 | – | – | – | > 9.04 | > 9.04 | – | > 9.04 | 7.03 to 9.04 | 0.804 to 4.82 | 0.804 to 4.82 | > 9.04 | < 0.804 | > 9.04 | CCc1ccc(Nc2nc3ccccc3n2-c2ncnc(Nc3cc(OC)c(OC)c(OC)c3)n2)cc1 [Compound 1048]
– | > 8.8 | – | – | – | 0.782 to 4.69 | > 8.8 | – | > 8.8 | 0.782 to 4.69 | > 8.8 | 0.782 to 4.69 | > 8.8 | < 0.782 | > 8.8 | COc1cc(Nc2ncnc(-n3c(Nc4ccccc4C(C)C)nc4ccccc43)n2)cc(OC)c1OC [Compound 1049]
– | 4.34 to 6.32 | – | – | – | 4.34 to 6.32 | > 8.13 | – | > 8.13 | 0.723 to 4.34 | 4.34 to 6.32 | > 8.13 | > 8.13 | 0.723 to 4.34 | > 8.13 | COc1cc(Nc2ncnc(-n3c(Nc4ccc(OC(F)(F)F)cc4)nc4ccccc43)n2)cc(OC)c1OC [Compound 1050]
– | > 8.78 | – | – | – | > 8.78 | > 8.78 | – | > 8.78 | 0.78 to 4.68 | 0.78 to 4.68 | < 0.78 | 4.68 to 6.83 | < 0.78 | 4.68 to 6.83 | COc1cc(Nc2ncnc(-n3c(Nc4ccc(N(C)C)cc4)nc4ccccc43)n2)cc(OC)c1OC [Compound 1051]
– | > 7.78 | – | – | – | > 7.78 | > 7.78 | – | > 7.78 | 4.15 to 6.05 | 4.15 to 6.05 | > 7.78 | > 7.78 | 0.692 to 4.15 | > 7.78 | COc1cc(Br)ccc1Nc1nc2ccccc2n1-c1ncnc(Nc2cc(OC)c(OC)c(OC)c2)n1 [Compound 1052]
– | 4.92 to 7.18 | – | – | – | > 9.23 | > 9.23 | – | > 9.23 | < 0.821 | > 9.23 | 0.821 to 4.92 | > 9.23 | < 0.821 | > 9.23 | COc1cc(Nc2ncnc(-n3c(Nc4cccc(F)c4)nc4ccccc43)n2)cc(OC)c1OC [Compound 1053]
– | > 9.5 | – | – | – | 7.39 to 9.5 | > 9.5 | – | > 9.5 | < 0.845 | > 9.5 | < 0.845 | > 9.5 | < 0.845 | 7.39 to 9.5 | COc1cc(Nc2ncnc(-c3cccnc3Nc3cccc(C(N)=O)c3)n2)cc(OC)c1OC [Compound 1090]
– | > 12.7 | – | – | – | 9.88 to 12.7 | 6.77 to 9.88 | – | > 12.7 | < 1.13 | 1.13 to 6.77 | 1.13 to 6.77 | 9.88 to 12.7 | < 1.13 | > 12.7 | COc1cc(Nc2ncnc(-c3cccnc3N)n2)cc(OC)c1OC [Compound 1091]
